In experiment [1] the test system is pre-activated CD4 T cells and Raji cells. Kind of experiment: Raji CD4 T Cell IL2 Assay. The format is cell-based.
In experiment [2] the target is T1, human DGKα (Homo sapiens (Human), UniProt P23743). Kind of experiment: biochemical. The settings on record: detergent/lipid micelle substrate; read-out: DGKα IC50. In short, it runs like this: (§1)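 Full-length human DGKα or DGKζ (C-terminal His tag, Sf9-expressed; 20 nM 4× stock) was preincubated 10 min at room temperature with PS/DAG octyl glucoside micelles in MOPS pH 7.5 buffer with MgCl2, CaCl2 and DTT. It was then started with ATP (300 uM addition) and run for 1 hr, with ADP-Glo luminescence read-out.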

Experiment [3] has as its target T2, human DGKζ (Homo sapiens (Human), UniProt Q13574). Kind of experiment: DGKζ LIPGLO assay (extruded liposome substrate). The experiment is classed as biochemical. The note with it: extruded liposome substrate; read-out: DGKζ LIPGLO IC50. The method, then: The DGKα and DGKζ reactions were performed using either extruded liposome (DGKα and DGKζ LIPGLO assays) or detergent/lipid micelle substrate (DGKα and DGKζ assays). The reactions were carried out in 50 mM MOPS pH 7.5, 100 mM NaCl, 10 mM MgCl2, 1 μM CaCl2, and 1 mM DTT (assay buffer). The reactions using a detergent/lipid micelle substrate also contained 50 mM octyl B-D-glucopyranoside.
(§2) A 5 mL enzyme/substrate solution at 2× final reaction concentration was prepared by combining 2.5 mL 4× enzyme solution (20 nM DGKα or DGKζ (prepared as described below) in assay buffer) and 2.5 mL of either 4× liposome or 4× detergent/lipid micelle solution (compositions described below) and incubated at room temperature for 10 minutes. Next, 1 μL 2× enzyme/substrate solution was added to wells containing the test compound and reactions were initiated with the addition of 1 μL 300 uM ATP. The reactions were allowed to proceed for 1 hr, after which 2 μL Glo Reagent (Promega V9101) was added and incubated for 40 minutes. Next, 4 μL Kinase Detection Reagent was added and incubated for 30 minutes. Luminescence was recorded using an EnVision microplate reader. […] The compounds were evaluated at 11 concentrations to determine IC50.
(§3) The PC, DAG, and PS were dissolved in chloroform, combined, and dried in vacuo to a thin film. The lipids were hydrated to 20 mM in 50 mM MOPS pH 7.5, 100 mM NaCl, 5 mM MgCl2, and were freeze-thawed five times. The lipid suspension was extruded through a 100 nm polycarbonate filter eleven times. […] The liposome preparation was stored at 4° C. for as long as four weeks.
Baculovirus amplification was achieved using infected Sf9 cells at 1:1500 virus/cell ratios, and grown for 65 hours at 27° C. post-transfection.
(§4) The expression scale up for each protein was carried out in the Cellbag 50 L WAVE-Bioreactor System 20/50 from GE Healthcare Bioscience. 12 L of 2×10^6 cells/mL Sf9 cells (Expression System, Davis, Calif.) grown in ESF921 insect medium (Expression System) were infected with virus stock at 1:200 virus/cell ratios, and grown for 66-68 hours at 27° C. post-infection. The infected cell culture was harvested by centrifugation at 2000 rpm for 20 min 4° C. in a SORVALL® RC12BP centrifuge. The cell pellets were stored at −70° C. until purification.
The cells were lysed using nitrogen cavitation method with a nitrogen bomb (Parr Instruments), and the lysates were clarified by centrifugation. […] The three steps column chromatography included nickel affinity resin capture (i.e. HisTrap FF crude, GE Healthcare), followed by size exclusion chromatography (i.e. HiLoad 26/600 Superdex 200 prep grade, GE Healthcare for DGK-alpha, and HiPrep 26/600 Sephacryl S 300_HR, GE Healthcare for DGK-zeta). The third step was ion exchange chromatography, and differed for the two isoforms. DGKα was polished using Q-Sepharose anion exchange chromatography (GE Healthcare). DGKζ was polished using SP Sepharose cation exchange chromatography (GE Healthcare). The proteins were delivered at concentrations of ≥2 mg/mL. The formulation buffers were identical for both proteins: 50 mM Hepes, pH 7.2, 500 mM NaCl, 10% v/v glycerol, 1 mM TCEP, and 0.5 mM EDTA.

For experiment [4], the target named is T1, human DGKα. The experiment is described as follows: DGKα LIPGLO assay (extruded liposome substrate). The format is biochemical. The method, then:
The DGKα and DGKζ reactions were performed using either extruded liposome (DGKα and DGKζ LIPGLO assays) or detergent/lipid micelle substrate (DGKα and DGKζ assays). The reactions were carried out in 50 mM MOPS pH 7.5, 100 mM NaCl, 10 mM MgCl2, 1 μM CaCl2, and 1 mM DTT (assay buffer). The reactions using a detergent/lipid micelle substrate also contained 50 mM octyl B-D-glucopyranoside. […] The lipid substrate concentrations were […], 0.25 mM DAG, and 2.75 mM PC for the extruded liposome reactions.
as §2, with “The compound inhibition studies were carried out as follows: 50 nL droplets of each test compound (top concentration 10 mM with 11 point, 3-fold dilution series for each compound) solubilized in DMSO were transferred to wells of a white 1536 well plate (Corning 3725). A 5” for “A 5”
as §3
Human DGK-alpha-TVMV-His-pFBgate and human DCK-zeta-transcript variant-2-TVMV-His-pFBgate baculovirus samples were generated using the Bac-to-Bac baculovirus expression system (Invitrogen) according to the manufacturer's protocol. The DNA used for expression of DGK-alpha and DGK-zeta have SEQ ID NOs: 1 and 3, respectively. Baculovirus amplification was achieved using infected Sf9 cells at 1:1500 virus/cell ratios, and grown for 65 hours at 27° C. post-transfection.
as §4
Full length human DGKα and DGKζ, each expressed containing a TVMV-cleavable C-terminal Hexa-His tag sequence (SEQ ID NOs: 2 and 4, respectively) and produced as described above, were purified from Sf) baculovirus-infected insect cell paste. The cells were lysed using nitrogen cavitation method with a nitrogen bomb (Parr Instruments), and the lysates were clarified by centrifugation. […] The three steps column chromatography included nickel affinity resin capture (i.e. HisTrap FF crude, GE Healthcare), followed by size exclusion chromatography (i.e. HiLoad 26/600 Superdex 200 prep grade, GE Healthcare for DGK-alpha, and HiPrep 26/600 Sephacryl S 300_HR, GE Healthcare for DGK-zeta). The third step was ion exchange chromatography, and differed for the two isoforms.

Experiment [5] addresses T2, human DGKζ. The experiment is described as follows: DGKζ assay (detergent/lipid micelle substrate). The format is biochemical. The settings on record: detergent/lipid micelle substrate; read-out: DGKζ IC50. The gist of the method: as §1

Each structure is given as a SMILES string. Where two headings read alike, the source gives them in different places. Bounds are passed on as bounds.

T2 sequence (Q13574 other isoform, or with tags, fused parts or gaps): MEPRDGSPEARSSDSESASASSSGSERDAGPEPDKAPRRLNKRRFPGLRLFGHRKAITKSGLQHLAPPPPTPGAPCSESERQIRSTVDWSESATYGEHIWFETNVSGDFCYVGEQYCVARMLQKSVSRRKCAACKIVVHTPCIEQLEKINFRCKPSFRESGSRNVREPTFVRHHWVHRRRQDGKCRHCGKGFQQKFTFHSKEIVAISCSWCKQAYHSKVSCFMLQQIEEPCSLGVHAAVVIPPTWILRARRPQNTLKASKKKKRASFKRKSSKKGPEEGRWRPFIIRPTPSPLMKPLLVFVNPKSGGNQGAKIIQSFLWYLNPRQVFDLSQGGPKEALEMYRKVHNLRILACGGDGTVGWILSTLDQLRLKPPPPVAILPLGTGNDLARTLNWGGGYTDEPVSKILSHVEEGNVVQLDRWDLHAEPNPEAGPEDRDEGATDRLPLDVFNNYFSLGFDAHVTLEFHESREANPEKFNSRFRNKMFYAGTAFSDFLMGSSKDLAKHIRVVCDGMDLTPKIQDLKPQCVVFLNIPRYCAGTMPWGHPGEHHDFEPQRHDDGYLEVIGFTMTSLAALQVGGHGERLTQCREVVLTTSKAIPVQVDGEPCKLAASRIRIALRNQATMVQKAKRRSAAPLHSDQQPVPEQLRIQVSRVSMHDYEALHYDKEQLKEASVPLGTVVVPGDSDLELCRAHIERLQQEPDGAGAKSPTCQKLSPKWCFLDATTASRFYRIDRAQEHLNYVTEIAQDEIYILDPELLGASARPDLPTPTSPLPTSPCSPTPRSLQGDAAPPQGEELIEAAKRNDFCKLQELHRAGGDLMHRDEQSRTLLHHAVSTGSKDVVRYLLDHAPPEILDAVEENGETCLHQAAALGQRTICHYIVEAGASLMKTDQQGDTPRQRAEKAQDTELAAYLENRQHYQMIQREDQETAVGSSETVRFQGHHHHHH
T1 sequence (P23743 other isoform, or with tags, fused parts or gaps): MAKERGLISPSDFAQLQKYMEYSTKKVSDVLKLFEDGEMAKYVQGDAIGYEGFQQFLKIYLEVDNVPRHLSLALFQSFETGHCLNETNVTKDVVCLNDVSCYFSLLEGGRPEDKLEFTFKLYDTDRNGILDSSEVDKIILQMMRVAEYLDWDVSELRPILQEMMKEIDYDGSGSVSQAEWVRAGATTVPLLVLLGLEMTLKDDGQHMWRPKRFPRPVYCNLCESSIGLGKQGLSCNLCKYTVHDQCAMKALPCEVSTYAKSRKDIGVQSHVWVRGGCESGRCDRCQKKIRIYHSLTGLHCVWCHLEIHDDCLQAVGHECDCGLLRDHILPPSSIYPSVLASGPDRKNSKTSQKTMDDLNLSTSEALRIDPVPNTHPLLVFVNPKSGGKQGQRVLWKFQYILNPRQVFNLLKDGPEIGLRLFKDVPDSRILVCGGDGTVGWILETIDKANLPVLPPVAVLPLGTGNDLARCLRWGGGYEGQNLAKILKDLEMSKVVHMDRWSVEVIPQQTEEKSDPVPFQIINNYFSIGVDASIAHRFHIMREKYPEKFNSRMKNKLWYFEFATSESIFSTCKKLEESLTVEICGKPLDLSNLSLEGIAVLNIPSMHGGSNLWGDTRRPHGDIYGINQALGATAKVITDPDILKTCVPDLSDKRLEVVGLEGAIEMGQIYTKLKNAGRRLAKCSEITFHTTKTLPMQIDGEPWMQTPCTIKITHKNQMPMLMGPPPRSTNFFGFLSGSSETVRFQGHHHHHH

The IC50 is the concentration that gives 50% inhibition. For the compound `C#CCn1c(=O)c([N+](=O)[O-])c(N2CCN(C(c3ccc(F)cc3)c3ccc(F)cc3OC)CC2)c2nc(C#N)ccc21` (single isomer, unassigned) [Example 127, 8-(4-((4-fluoro-2-methoxyphenyl)(4-fluorophenyl)methyl)piperazin-1-yl)-7-nitro-6-oxo-5-(prop-2-yn-1-yl)-5,6-dihydro-1,5-naphthyridine-2-carbonitrile], the IC50 in experiment [1] came out at 0.0064 µM; on human DGKα [2], 4.2 µM; on human DGKζ [3], 0.03 µM; against human DGKα [4], 2.9 µM; on human DGKζ [5], 0.25 µM.
For `CC(c1ccc(F)cc1)N1CCN(c2c(C#N)c(=O)n(C)c3ccc(Br)nc23)CC1` (single isomer, unassigned) [Example 24, 6-bromo-4-{4-[1-(4-fluorophenyl)ethyl]piperazin-1-yl}-1-methyl-2-oxo-1,2-dihydro-1,5-naphthyridine-3-carbonitrile] the same measures were 0.012 µM, 0.034 µM, 90 µM, 0.15 µM and more than 240 µM.
For `Cn1c(=O)c(C#N)c(N2CCN(C(c3ccccc3)c3ccccc3)CC2)c2ncccc21` [Example 196, 4-(4-benzhydrylpiperazin-1-yl)-1-methyl-2-oxo-1,2-dihydro-1,5-naphthyridine-3-carbonitrile], the IC50 in experiment [1] (Homo sapiens, Raji) is 2.1 µM; on human DGKα [2], 4 µM; at human DGKζ [3] it was 43 µM; against human DGKα [4], 2.7 µM; at human DGKζ [5], more than 240 µM.
With `CCC(c1ccc(F)cc1)N1CCN(c2c(C#N)c(=O)n(C)c3ccc(Br)nc23)CC1` (single isomer, unassigned) [Example 26, 6-bromo-4-{4-[1-(4-fluorophenyl)propyl]piperazin-1-yl}-1-methyl-2-oxo-1,2-dihydro-1,5-naphthyridine-3-carbonitrile], the half-inhibitory concentration (IC50) in experiment [1] came to 0.14 µM; at human DGKα [2], 4.3 µM; at human DGKζ [3], 18 µM; against human DGKα [4], 6.7 µM; at human DGKζ [5], 85 µM.
With `CC(c1ccc(F)cc1)N1CCN(c2c([N+](=O)[O-])c(=O)n(C)c3ccc(C#N)nc23)CC1` (single isomer, unassigned) [Example 45, 8-(4-(1-(4-fluorophenyl)ethyl)piperazin-1-yl)-5-methyl-7-nitro-6-oxo-5,6-dihydro-1,5-naphthyridine-2-carbonitrile], the IC50 in experiment [1] (Homo sapiens, Raji) stood at 0.062 µM; at human DGKα [2] it was 0.1 µM; on human DGKζ [3], 6.8 µM; against human DGKα [4], 0.39 µM; on human DGKζ [5], 36 µM.
As for `Cn1c(=O)c(C#N)c(N2CCN(Cc3ccc(F)cc3)CC2)c2nc(Cl)ccc21` [Example 308, 6-chloro-4-{4-[(4-fluorophenyl)methyl]piperazin-1-yl}-1-methyl-2-oxo-1,2-dihydro-1,5-naphthyridine-3-carbonitrile], the IC50 in experiment [1] (Homo sapiens, Raji) stood at 0.21 µM; at human DGKα [2], 0.19 µM; at human DGKζ [3] it was 13 µM; against human DGKα [4] it was 0.95 µM.
As to `COc1ccc2c(n1)c(N1CCN(C(c3ccc(F)cc3)c3ccc(F)cc3)CC1)c(C#N)c(=O)n2C` [Example 103, 4-(4-(bis(4-fluorophenyl)methyl)piperazin-1-yl)-6-methoxy-1-methyl-2-oxo-1,2-dihydro-1,5-naphthyridine-3-carbonitrile], the IC50 in experiment [1] (Homo sapiens, Raji) is 0.4 µM; at human DGKζ [3] it was 0.99 µM; on human DGKα [4], 6.1 µM.
The corresponding values for `CCn1ccc2c(CN3CCN(c4c(C#N)c(=O)n(C)c5cccnc45)CC3)cccc21` [Example 334, 4-{4-[(1-ethyl-1H-indol-4-yl)methyl]piperazin-1-yl}-1-methyl-2-oxo-1,2-dihydro-1,5-naphthyridine-3-carbonitrile] are 0.54 µM, 27 µM and 1.7 µM.
For `Cn1c(=O)cc(N2CCN(C(c3ccc(F)cc3)c3ccc(F)cc3)CC2)c2ncccc21` [Example 426, 4-(4-(bis(4-fluorophenyl)methyl)piperazin-1-yl)-1-methyl-1,5-naphthyridin-2(1H)-one] the same measures were 20 µM, more than 240 µM and 170 µM.
Consider `Cc1ccc2c(n1)c(N1CCN(C(c3ccc(F)cc3)c3ccc(F)cc3)CC1)c(C(=O)C(F)(F)F)c(=O)n2C` [Example 228, 4-(4-(bis(4-fluorophenyl)methyl)piperazin-1-yl)-1,6-dimethyl-3-(2,2,2-trifluoroacetyl)-1,5-naphthyridin-2(1H)-one], for which the half-maximal inhibitory concentration (IC50) was 0.11 µM in experiment [1] (Homo sapiens, Raji); 9.7 µM on human DGKζ [3]; more than 240 µM at human DGKα [4]; more than 240 µM at human DGKζ [5].
Regarding `COc1ccc2c(n1)c(N1CCN(C(c3ccc(F)cc3)c3ccccc3O)CC1)c(C#N)c(=O)n2C` (stereo not shown) [Example 104, 4-(4-((4-fluorophenyl)(2-hydroxyphenyl)methyl)piperazin-1-yl)-6-methoxy-1-methyl-2-oxo-1,2-dihydro-1,5-naphthyridine-3-carbonitrile], the IC50 came to 0.44 µM in experiment [1] (Homo sapiens, Raji); 0.78 µM on human DGKζ [3]; 0.74 µM at human DGKα [4].
For `Cn1c(=O)c([N+](=O)[O-])c(N2CCN(C(C)(C)c3ccc(F)cc3)CC2)c2nc(C#N)ccc21` [Example 260, 8-{4-[2-(4-fluorophenyl)propan-2-yl]piperazin-1-yl}-5-methyl-7-nitro-6-oxo-5,6-dihydro-1,5-naphthyridine-2-carbonitrile], the IC50 in experiment [1] (Homo sapiens, Raji) turned out to be 0.018 µM; on human DGKα [2] it was 0.35 µM; at human DGKζ [3], 5.3 µM; on human DGKα [4], 1.6 µM.

Source of the values: patent US11866430B2, “Naphthyridinone compounds useful as T cell activators” (priority 2018, dated 2024).
